Assay results reported in patent US20050203191A1, “1-Aminocyclohexane derivatives for the treatment of agitation and other behavioral disorders, especially those associated with alzheimer's disease” (priority 2004, published 2005).

Test system: moderate to severe Alzheimer's patients treated with ongoing donepezil therapy
Assay: MD-02 (Therapy Example 2): 24-week double-blind placebo-controlled trial of memantine added to ongoing donepezil
Type: in vivo, human
Conditions: MD-02, on donepezil, week 24, ITT LOCF
Description: A 24 week, double-blind, placebo-controlled trial was conducted in moderate to severe Alzheimer's patients (N=404) treated with ongoing donepezil therapy and randomized to memantine or placebo. Behavioral symptoms were assessed using the NPI administered at baseline, Week 12 and the final visit (Week 24). The trial already had established benefits of memantine on functional, cognitive, and global measures. The statistical analysis was based on the ITT population using the last observation carried forward (LOCF) and observed case (OC) approaches.
This study enrolled four hundred and four patients diagnosed with probable AD according to the National Institute of Neurological and Communicative Disorders and Stroke—Alzheimer's Disease and Related Disorders Association (NINCDS-ADRDA) criteria with moderate to severe stages of illness. Inclusion criteria were as follows: Mini-Mental State Examination (MMSE) score of 5-14 at screening and at baseline; minimum age of 50 years; a recent MRI or CT scan consistent with a diagnosis of probable AD; on AChEI therapy, which was defined by the protocol to be donepezil, for more than 6 months prior to entrance into the trial and at a stable dose (5-10 mg/day) for at least 3 months prior to entrance in the trial; a knowledgeable and reliable caregiver to accompany the patient to research visits and oversee the administration of the investigational agent during the trial; residence in the community; ambulatory or ambulatory-aided (i.e. walker or cane) ability; and stable medical condition.
Patients were excluded for clinically significant reasons; B12 or folate deficiency; active pulmonary, gastrointestinal, renal, hepatic, endocrine, or cardiovascular disease; other psychiatric or central nervous system disorders; CT or MRI evidence of clinically significant central nervous system disorders other than probable AD; dementia complicated by other organic disease; or a modified Hachinski Ischemia Score30 greater than 4 at screening.
This was a prospective, randomized, placebo-controlled, parallel-arm, fixed-dose trial in which participants were assigned to double-blind treatment for 24 weeks with a 1-2 week single-blind, placebo lead-in phase prior to randomization. The initial dose of memantine was 5 mg/day with escalation to 20 mg/day over the first 3 weeks of double-blind treatment. All patients were to maintain their protocol-defined AChEI therapy at entry dose for the duration of the study. From week 3 to the end of week 8 of double-blind treatment, transient dosage adjustments for memantine treatment were permitted for patients experiencing dose-limiting adverse events. All memantine-treated patients were required to receive the target dose of 20 mg/day by the end of week 8, and patients not tolerating the target dose at that time were discontinued.
Patients were randomly allocated in permuted blocks of four to one of the two treatment. Blinded study medication was supplied to each study site for dispensation in blister packs at each visit. No unblinding occurred during the trial. Compliance monitoring was conducted via pill counts, and over 95% of both treatment groups had >75% compliance (95% for the placebo/AChEI treatment group and 96.5% for the memantine/AChEI treatment group).
Cognitive, functional, global, and behavioral outcome measures were obtained at screening, baseline, and at the end of weeks 4, 8, 12, 18, and 24. […] The efficacy parameters were the change from baseline on the SIB, a modified ADCS-ADL Inventory score at week 24, and the NPI. The 12-item version of the NPI was used here, with a total score ranging from 0-144. Higher scores reflect greater symptomatology. The NPI was assessed at baseline, at the end of week 12, and at the final visit.
Three populations were considered in the statistical analyses. […]

[1] = NPI total score ≧=75% (top quartile)
[2] = antipsychotics usage “YES” (N = n)
[3] = antipsychotics usage “YES” (N = y)
[4] = baseline NPI agitation score <4
[5] = baseline NPI agitation score ≧=4

Structure (SMILES): CC12CC3CC(C)(C1)CC(N)(C3)C2 [memantine, 1-amino-3,5-dimethyl adamantane]
- ADCS-ADL (change) LS Mean Diff., MEM v. PLA (NPI total score <75%): 1.17
- ADCS-ADL (change) mean (NPI total score <75%): −1.6
- CIBIC-PLUS Raw Mean Diff., MEM v. PLA (NPI total score <75%): −0.2
- CIBIC-PLUS mean (NPI total score <75%): 4.4
- SIB (change) LS Mean Diff., MEM v. PLA (NPI total score <75%): 2.5
- SIB (change) mean (NPI total score <75%): 0.9
- ADCS-ADL (change) LS Mean Diff., MEM v. PLA [1]: 1.73
- ADCS-ADL (change) mean [1]: −2.6
- CIBIC-PLUS Raw Mean Diff., MEM v. PLA [1]: −0.3
- CIBIC-PLUS mean [1]: 4.4
- SIB (change) LS Mean Diff., MEM v. PLA [1]: 6.1
- SIB (change) mean [1]: −1.4
- ADCS-ADL (change) LS Mean Diff., MEM v. PLA (NPI total score ≧=75% (top quartile), listed as MEM): −1.73
- ADCS-ADL (change) LS Mean Diff., MEM v. PLA [2]: 0.9
- ADCS-ADL (change) mean [2]: −1.8
- CIBIC-PLUS Raw Mean Diff., MEM v. PLA [2]: −0.08
- CIBIC-PLUS mean [2]: 4.45
- SIB (change) LS Mean Diff., MEM v. PLA [2]: 1.7
- SIB (change) mean [2]: 0.3
- ADCS-ADL (change) LS Mean Diff., MEM v. PLA [3]: 3.6
- ADCS-ADL (change) mean [3]: −2.1
- CIBIC-PLUS Raw Mean Diff., MEM v. PLA [3]: −1.18
- CIBIC-PLUS mean [3]: 4.17
- SIB (change) LS Mean Diff., MEM v. PLA [3]: 12.4
- SIB (change) mean [3]: 5.2
- ADCS-ADL (change) LS Mean Diff., MEM v. PLA [4]: 1.2
- ADCS-ADL (change) mean [4]: −1.8
- CIBIC-PLUS Raw Mean Diff., MEM v. PLA [4]: −0.3
- CIBIC-PLUS mean [4]: 4.4
- SIB (change) LS Mean Diff., MEM v. PLA [4]: 3.6
- SIB (change) mean [4]: 1.0
- SIB (change) LS Mean Diff., MEM v. PLA (baseline NPI agitation score <4, listed as MEM): 3.4
- ADCS-ADL (change) LS Mean Diff., MEM v. PLA [5]: 2.1
- ADCS-ADL (change) mean [5]: −2.0
- CIBIC-PLUS Raw Mean Diff., MEM v. PLA [5]: −0.1
- SIB (change) LS Mean Diff., MEM v. PLA [5]: 3.8
- SIB (change) mean [5]: 1.1
- ADCS-ADL (change) LS mean (overall): −2.00
- CIBIC-PLUS LS mean (overall): 4.41
- SIB (change) LS mean (overall): 0.90
- ADCS-ADL (change) LS Mean Diff., MEM v. PLA (overall, listed as MEM): −1.40
- CIBIC-PLUS Raw Mean Diff., MEM v. PLA (overall, listed as MEM): −0.25
- SIB (change) LS Mean Diff., MEM v. PLA (overall, listed as MEM): −3.40
